Data reported in US20240050428A1 (Cullgen (Shanghai), Inc., priority 2020, published 2024).
Like-named read-outs stand apart in the source and are kept apart here.

Experiments:
MOLM-13 cells = assay: Cell viability assay (CellTiter-Glo) in MOLM-13 cells, alone or with gilteritinib; assay type: cell-based; conditions: Homo sapiens, MOLM-13, 72 h, MOLM-13 cells, three days, CellTiter-Glo
MV4;11 cells = assay: Cell viability assay (CellTiter-Glo) in MV4;11 cells, alone or with gilteritinib; assay type: cell-based; conditions: Homo sapiens, MV4-11, 72 h, MV4;11 cells, three days, CellTiter-Glo, read-out: MV4
[1] = compound alone (without gilteritinib), read-out: MOLM-13 IC50
[2] = compound with gilteritinib 20 nM, read-out: MOLM-13 IC50 gilteritinib
[3] = compound alone (without gilteritinib), 11 IC50
[4] = compound with gilteritinib 10 nM, 11 IC50 gilteritinib

Row | Structure (SMILES) | IC50 (MOLM-13 cells; [1]) [µM] | IC50 (MOLM-13 cells; [2]) [µM] | IC50 (MV4;11 cells; [3]) [µM] | IC50 (MV4;11 cells; [4]) [µM]
1 | O=C1CCC(N2C(=O)c3ccc(NC4CC5(C4)CC(n4cc(-c6cnc7ccccc7n6)cn4)C5)cc3C2=O)C(=O)N1 (centres unmarked) [GS-527, 2-(2,6-Dioxopiperidin-3-yl)-5-((6-(4-(quinoxalin-2-yl)-1H-pyrazol-1-yl)spiro[3.3]heptan-2-yl)amino)isoindoline-1,3-dione] | > 1 | 0.1 to 1 | 0.1 to 1 | 0.1 to 1
2 | O=C1CCC(N2C(=O)c3ccc(NCCCCCC(=O)N4CCC(n5cc(-c6cnc7ccc(N8CCOCC8)cc7n6)cn5)CC4)cc3C2=O)C(=O)N1 (centres unmarked) [GS-528, 2-(2,6-Dioxopiperidin-3-yl)-5-((6-(4-(4-(7-morpholinoquinoxalin-2-yl)-1H-pyrazol-1-yl)piperidin-1-yl)-6-oxohexyl)amino)isoindoline-1,3-dione] | < 0.01 | < 0.01 | < 0.01 | < 0.01
3 | CN1CCN(c2ccc3ncc(-c4cnn(CCCCCCNc5ccc6c(c5)C(=O)N(C5CCC(=O)NC5=O)C6=O)c4)nc3c2)CC1 (centres unmarked) [GS-529, 2-(2,6-Dioxopiperidin-3-yl)-5-((6-(4-(7-(4-methylpiperazin-1-yl)quinoxalin-2-yl)-1H-pyrazol-1-yl)hexyl)amino)isoindoline-1,3-dione] | > 1 | < 0.01 | 0.01 to 0.1 | < 0.01
4 | O=C1CCC(N2C(=O)c3ccc(NCCCCCCn4cc(-c5cnc6ccc(N7CCOCC7)cc6n5)cn4)cc3C2=O)C(=O)N1 (centres unmarked) [GS-530, 2-(2,6-Dioxopiperidin-3-yl)-5-((6-(4-(7-morpholinoquinoxalin-2-yl)-1H-pyrazol-1-yl)hexyl)amino)isoindoline-1,3-dione] | 0.01 to 0.1 | < 0.01 | 0.01 to 0.1 | < 0.01
5 | O=C1CCC(N2C(=O)c3ccc(NCCCCCCn4cc(-c5cnc6ccc(C7=CCNCC7)cc6n5)cn4)cc3C2=O)C(=O)N1 (centres unmarked) [GS-531, 2-(2,6-Dioxopiperidin-3-yl)-5-((6-(4-(7-(1,2,3,6-tetrahydropyridin-4-yl)quinoxalin-2-yl)-1H-pyrazol-1-yl)hexyl)amino)isoindoline-1,3-dione] | 0.01 to 0.1 | < 0.01 | 0.01 to 0.1 | < 0.01
6 | O=C1CCC(N2C(=O)c3ccc(NCCCCCCn4cc(-c5cnc6ccc(N7CCNCC7)cc6n5)cn4)cc3C2=O)C(=O)N1 (centres unmarked) [GS-532, 2-(2,6-Dioxopiperidin-3-yl)-5-((6-(4-(7-(piperazin-1-yl)quinoxalin-2-yl)-1H-pyrazol-1-yl)hexyl)amino)isoindoline-1,3-dione] | 0.1 to 1 | < 0.01 | 0.01 to 0.1 | < 0.01
7 | O=C1CCC(N2Cc3cc(CNC(=O)C(F)(F)CCC(=O)N4CCC(n5cc(-c6cnc7ccccc7n6)cn5)CC4)ccc3C2=O)C(=O)N1 (centres unmarked) [GS-533, N-((2-(2,6-dioxopiperidin-3-yl)-1-oxoisoindolin-5-yl)methyl)-2,2-difluoro-5-oxo-5-(4-(4-(quinoxalin-2-yl)-1H-pyrazol-1-yl)piperidin-1-yl)pentanamide] | > 1 | > 1 | 0.1 to 1 | 0.01 to 0.1
8 | Cc1nn(CCCCCCNc2ccc3c(c2)C(=O)N(C2CCC(=O)NC2=O)C3=O)cc1-c1cnc2ccccc2n1 (centres unmarked) [GS-534, 2-(2,6-Dioxopiperidin-3-yl)-5-((6-(3-methyl-4-(quinoxalin-2-yl)-1H-pyrazol-1-yl)hexyl)amino)isoindoline-1,3-dione] | 0.01 to 0.1 | < 0.01 | 0.01 to 0.1 | < 0.01
9 | Cc1c(-c2cnc3ccccc3n2)cnn1CCCCCCNc1ccc2c(c1)C(=O)N(C1CCC(=O)NC1=O)C2=O (centres unmarked) [GS-535, 2-(2,6-dioxopiperidin-3-yl)-5-((6-(5-methyl-4-(quinoxalin-2-yl)-1H-pyrazol-1-yl)hexyl)amino)isoindoline-1,3-dione] | > 1 | < 0.01 | 0.01 to 0.1 | 0.01 to 0.1
10 | O=C1CCC(N2C(=O)c3ccc(NCCCCCCn4ccc(-c5cnc6ccccc6n5)n4)cc3C2=O)C(=O)N1 (centres unmarked) [GS-536, 2-(2,6-Dioxopiperidin-3-yl)-5-((6-(3-(quinoxalin-2-yl)-1H-pyrazol-1-yl)hexyl)amino)isoindoline-1,3-dione] | > 1 | 0.01 to 0.1 | > 1 | 0.1 to 1
11 | O=C1CCC(N2C(=O)c3ccc(NCCCCCCn4nccc4-c4cnc5ccccc5n4)cc3C2=O)C(=O)N1 (centres unmarked) [GS-537, 2-(2,6-dioxopiperidin-3-yl)-5-((6-(5-(quinoxalin-2-yl)-1H-pyrazol-1-yl)hexyl)amino)isoindoline-1,3-dione] | > 1 | 0.01 to 0.1 | 0.1 to 1 | 0.1 to 1
12 | O=C1CCC(N2C(=O)c3ccc(NCC4CC(n5cc(-c6cnc7ccccc7n6)cn5)C4)cc3C2=O)C(=O)N1 (centres unmarked) [GS-538, 2-(2,6-Dioxopiperidin-3-yl)-5-(((3-(4-(quinoxalin-2-yl)-1H-pyrazol-1-yl)cyclobutyl)methyl)amino)isoindoline-1,3-dione] | 0.1 to 1 | 0.01 to 0.1 | 0.1 to 1 | 0.01 to 0.1
13 | O=C1CCC(N2C(=O)c3ccc(NCC4CC5(C4)CC(n4cc(-c6cnc7ccccc7n6)cn4)C5)cc3C2=O)C(=O)N1 (centres unmarked) [GS-539, 2-(2,6-Dioxopiperidin-3-yl)-5-(((6-(4-(quinoxalin-2-yl)-1H-pyrazol-1-yl)spiro[3.3]heptan-2-yl)methyl)amino)isoindoline-1,3-dione] | > 1 | 0.1 to 1 | > 1 | 0.1 to 1
14 | Cc1nn(CCCCCCNc2ccc3c(c2)C(=O)N(C2CCC(=O)NC2=O)C3=O)c(C)c1-c1nc2ccccc2nc1C(F)(F)F (centres unmarked) [GS-540, 5-((6-(3,5-Dimethyl-4-(3-(trifluoromethyl)quinoxalin-2-yl)-1H-pyrazol-1-yl)hexyl)amino)-2-(2,6-dioxopiperidin-3-yl)isoindoline-1,3-dione] | > 1 | 0.01 to 0.1 | > 1 | 0.01 to 0.1
15 | O=C1CCC(N2C(=O)c3ccc(NCCCCCCn4cc(-c5cnc6ccc(C7CCNCC7)cc6n5)cn4)cc3C2=O)C(=O)N1 (centres unmarked) [GS-541, 2-(2,6-Dioxopiperidin-3-yl)-5-((6-(4-(7-(piperidin-4-yl)quinoxalin-2-yl)-1H-pyrazol-1-yl)hexyl)amino)isoindoline-1,3-dione] | 0.01 to 0.1 | < 0.01 | 0.1 to 1 | < 0.01
16 | O=C1CCC(N2C(=O)c3ccc(NCCCCCCn4cc(-c5cnc6ccc(C7CCOCC7)cc6n5)cn4)cc3C2=O)C(=O)N1 (centres unmarked) [GS-542, 2-(2,6-Dioxopiperidin-3-yl)-5-((6-(4-(7-(tetrahydro-2H-pyran-4-yl)quinoxalin-2-yl)-1H-pyrazol-1-yl)hexyl)amino)isoindoline-1,3-dione] | 0.01 to 0.1 | < 0.01 | 0.01 to 0.1 | < 0.01
17 | O=C1CCC(N2C(=O)c3ccc(NCCCCC(=O)N4CCC(n5cc(-c6cnc7ccc(N8CCNCC8)cc7n6)cn5)CC4)cc3C2=O)C(=O)N1 (centres unmarked) [GS-543, 2-(2,6-Dioxopiperidin-3-yl)-5-((5-oxo-5-(4-(4-(7-(piperazin-1-yl)quinoxalin-2-yl)-1H-pyrazol-1-yl)piperidin-1-yl)pentyl)amino)isoindoline-1,3-dione] | 0.01 to 0.1 | < 0.01 | 0.01 to 0.1 | < 0.01
